Activity calls are given as the source filed them. No cut-off for these calls is given here.
How the values were obtained:
[1] = Solubility of the compound in water; type: physicochemical; settings: buffer
HCT-8 = assay: Cytotoxicity against human HCT8 cells assessed as growth inhibition after 48 hrs by MTT assay; type: functional, cell-based; settings: HCT-8, 48 h
HeLa = assay: Cytotoxicity against human HeLa cells assessed as growth inhibition after 48 hrs by MTT assay; type: functional, cell-based
A549 [2] = assay: Cytotoxicity against human A549 cells assessed as growth inhibition after 48 hrs by MTT assay; type: functional, cell-based; settings: A549, 48 h
HL-60 = assay: Cytotoxicity against human HL60 cells assessed as growth inhibition after 48 hrs by CCK-8 assay; type: functional, cell-based; settings: HL-60, 48 h
A549 [3] = assay: Cell cycle arrest in human A549 cells assessed as accumulation at sub-G1 phase at 5 uM after 24 hrs by propidium iodide staining-based FACS flow cytometric analysis (reference value: 1.5%); type: functional
A549 [4] = assay: Cell cycle arrest in human A549 cells assessed as accumulation at sub-G1 phase at 5 uM after 48 hrs by propidium iodide staining-based FACS flow cytometric analysis (reference value: 1.5%); type: functional
A549 [5] = assay: Cell cycle arrest in human A549 cells assessed as accumulation at S phase at 5 uM after 48 hrs by propidium iodide staining-based FACS flow cytometric analysis (reference value: 25.5%); type: functional
A549 [6] = assay: Induction of apoptosis in human A549 cells assessed as cell shrinkage after 48 hrs by confocal microscopic analysis; type: functional, cell-based
A549 [7] = assay: Induction of apoptosis in human A549 cells assessed as nuclear condensation after 48 hrs by DAPI staining-based confocal microscopic analysis; type: functional, cell-based
A549 [8] = assay: Cell cycle arrest in human A549 cells assessed as accumulation at G2/M phase at 5 uM after 24 hrs by propidium iodide staining-based FACS flow cytometric analysis (reference value: 16.4%); type: functional
A549 [9] = assay: Cell cycle arrest in human A549 cells assessed as accumulation at G2/M phase at 5 uM after 48 hrs by propidium iodide staining-based FACS flow cytometric analysis (reference value: 16.4%); type: functional
A549 [10] = assay: Cell cycle arrest in human A549 cells assessed as accumulation at S phase at 5 uM after 24 hrs by propidium iodide staining-based FACS flow cytometric analysis (reference value: 25.5%); type: functional
A549 [11] = assay: Induction of apoptosis in human A549 cells assessed as appearance of round, short and dense microtubule networks after 48 hrs by confocal microscopic analysis; type: functional, cell-based
A549 [12] = assay: Cell cycle arrest in human A549 cells assessed as accumulation at G1 phase at 5 uM after 48 hrs by propidium iodide staining-based FACS flow cytometric analysis (reference value: 58.1%); type: functional
A549 [13] = assay: Induction of apoptosis in human A549 cells assessed as nuclear DNA fragmentation after 48 hrs by DAPI staining-based confocal microscopic analysis; type: functional, cell-based
A549 [14] = assay: Cell cycle arrest in human A549 cells assessed as accumulation at G1 phase at 5 uM after 24 hrs by propidium iodide staining-based FACS flow cytometric analysis (reference value: 58.1%); type: functional
[15] = biological target: DNA topoisomerase 2-alpha (Homo sapiens) (UniProt P11388); assay: Inhibition of DNA topoisomerase-2 (unknown origin) assessed as inhibition of pBR322 DNA relaxation at 100 uM by agarose gel electrophoresis
Chain of DNA topoisomerase 2-alpha (Homo sapiens) (P11388 whole entry): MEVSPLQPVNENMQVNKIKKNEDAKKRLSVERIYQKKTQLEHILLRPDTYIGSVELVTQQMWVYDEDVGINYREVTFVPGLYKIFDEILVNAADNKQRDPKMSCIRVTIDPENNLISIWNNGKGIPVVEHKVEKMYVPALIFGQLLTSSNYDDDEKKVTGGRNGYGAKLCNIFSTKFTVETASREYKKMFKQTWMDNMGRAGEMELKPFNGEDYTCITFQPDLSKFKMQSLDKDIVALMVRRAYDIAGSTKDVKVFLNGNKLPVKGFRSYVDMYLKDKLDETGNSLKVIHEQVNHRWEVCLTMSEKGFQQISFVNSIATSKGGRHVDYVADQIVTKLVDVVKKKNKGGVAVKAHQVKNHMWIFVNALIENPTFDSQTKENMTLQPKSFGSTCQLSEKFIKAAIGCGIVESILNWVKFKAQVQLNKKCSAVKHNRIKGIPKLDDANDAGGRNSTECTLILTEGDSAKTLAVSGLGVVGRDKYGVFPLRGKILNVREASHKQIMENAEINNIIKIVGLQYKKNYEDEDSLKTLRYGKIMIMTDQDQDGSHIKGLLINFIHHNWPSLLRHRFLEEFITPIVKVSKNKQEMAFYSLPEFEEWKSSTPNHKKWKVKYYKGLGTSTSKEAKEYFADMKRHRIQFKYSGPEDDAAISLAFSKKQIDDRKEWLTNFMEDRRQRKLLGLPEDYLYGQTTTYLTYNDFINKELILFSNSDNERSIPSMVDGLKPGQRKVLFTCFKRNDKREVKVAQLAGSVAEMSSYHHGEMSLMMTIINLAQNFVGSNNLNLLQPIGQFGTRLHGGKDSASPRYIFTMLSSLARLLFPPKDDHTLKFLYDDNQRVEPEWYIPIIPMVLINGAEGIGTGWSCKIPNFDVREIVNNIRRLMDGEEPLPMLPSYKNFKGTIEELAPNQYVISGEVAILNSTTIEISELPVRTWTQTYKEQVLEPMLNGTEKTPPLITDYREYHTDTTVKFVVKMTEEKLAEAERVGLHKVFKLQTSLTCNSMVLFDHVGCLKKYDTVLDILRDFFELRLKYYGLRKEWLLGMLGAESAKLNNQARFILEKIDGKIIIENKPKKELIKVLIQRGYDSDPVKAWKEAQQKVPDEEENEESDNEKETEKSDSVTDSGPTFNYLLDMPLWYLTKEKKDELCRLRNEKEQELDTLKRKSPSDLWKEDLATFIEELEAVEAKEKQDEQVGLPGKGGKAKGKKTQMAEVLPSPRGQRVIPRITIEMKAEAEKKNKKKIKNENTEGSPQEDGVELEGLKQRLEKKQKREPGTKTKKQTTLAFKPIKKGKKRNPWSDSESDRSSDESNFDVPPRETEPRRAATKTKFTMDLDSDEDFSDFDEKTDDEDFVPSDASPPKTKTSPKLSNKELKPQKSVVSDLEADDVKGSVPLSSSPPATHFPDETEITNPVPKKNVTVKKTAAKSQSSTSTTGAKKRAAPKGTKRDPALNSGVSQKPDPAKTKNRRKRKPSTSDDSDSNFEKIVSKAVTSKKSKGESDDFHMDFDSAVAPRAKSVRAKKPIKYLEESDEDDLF

SMILES	IC50 (HCT-8)	IC50 (HeLa)	IC50 (A549 [2])	IC50 (HL-60)	further results
COc1cc([C@@H]2c3cc4c(cc3[C@H](O)[C@H]3COC(=O)[C@H]23)OCO4)cc(OC)c1OC [PODOFILOX]	–	–	–	–	solubility [1]: soluble
COc1cc([C@@H]2c3cc4c(cc3[C@@H](n3cc(CO)nn3)[C@H]3COC(=O)[C@H]23)OCO4)cc(OC)c1OC	2.76 µM	0.92 µM	22.1 µM	0.298 µM	–
COc1cc([C@@H]2c3cc4c(cc3[C@@H](n3cc(COC(=O)N5CCN(C6CCCC6)CC5)nn3)[C@H]3COC(=O)[C@H]23)OCO4)cc(OC)c1OC	0.35 µM	< 0.01 µM	8.7 µM	< 0.01 µM	–
CCCNC(=O)OCc1cn([C@@H]2c3cc4c(cc3[C@@H](c3cc(OC)c(OC)c(OC)c3)[C@H]3C(=O)OC[C@@H]32)OCO4)nn1	6.29 µM	7.42 µM	46.8 µM	2.77 µM	–
COc1cc([C@@H]2c3cc4c(cc3[C@@H](n3cc(COC(=O)NC5CCCC5)nn3)[C@H]3COC(=O)[C@H]23)OCO4)cc(OC)c1OC	14.9 µM	1.16 µM	14.8 µM	0.375 µM	–
COc1cc([C@@H]2c3cc4c(cc3[C@@H](n3cc(COC(=O)N5CCOCC5)nn3)[C@H]3COC(=O)[C@H]23)OCO4)cc(OC)c1O	0.37 µM	0.03 µM	1.46 µM	0.045 µM	–
COc1cc([C@@H]2c3cc4c(cc3[C@@H](n3cc(COC(=O)N[C@@H](CCSC)C(=O)N5CCN(c6ccc([N+](=O)[O-])cc6)CC5)nn3)[C@H]3COC(=O)[C@H]23)OCO4)cc(OC)c1O	40.8 µM	10.3 µM	45.6 µM	15.7 µM	solubility [1]: soluble
COc1cc([C@@H]2c3cc4c(cc3[C@@H](n3cc(COC(=O)NC5CCCC5)nn3)[C@H]3COC(=O)[C@H]23)OCO4)cc(OC)c1O	0.05 µM	0.51 µM	0.14 µM	< 0.01 µM	Activity (A549 [3]): 24.3%; Activity (A549 [4]): 26.8%; Activity (A549 [5]): 55.1%; Activity (A549 [6]): Dose-dependent effect; Activity (A549 [7]): Dose-dependent effect; Activity (A549 [8]): 20.6%; Activity (A549 [9]): 22.2%; Activity (A549 [10]): 36.3%; Activity (A549 [11]): Dose-dependent effect; Activity (A549 [12]): 22.7%; Activity (A549 [13]): Dose-dependent effect; Activity (A549 [14]): 43.1%; inhibition [15]: Active
CCCNC(=O)OCc1cn([C@@H]2c3cc4c(cc3[C@@H](c3cc(OC)c(O)c(OC)c3)[C@H]3C(=O)OC[C@@H]32)OCO4)nn1	16.2 µM	6.91 µM	23 µM	0.183 µM	–
COc1cc([C@@H]2c3cc4c(cc3[C@@H](n3cc(COC(=O)N5CCN(c6ccc([N+](=O)[O-])cc6)CC5)nn3)[C@H]3COC(=O)[C@H]23)OCO4)cc(OC)c1O	6.15 µM	3.5 µM	5.58 µM	0.32 µM	solubility [1]: soluble
COc1cc([C@@H]2c3cc4c(cc3[C@@H](n3cc(COC(=O)N5CCN(c6ccc(F)cc6)CC5)nn3)[C@H]3COC(=O)[C@H]23)OCO4)cc(OC)c1OC	1.47 µM	3.84 µM	22.1 µM	< 0.01 µM	–
COc1cc([C@@H]2c3cc4c(cc3[C@@H](n3cc(COC(=O)N5CCOCC5)nn3)[C@H]3COC(=O)[C@H]23)OCO4)cc(OC)c1OC	2.05 µM	35.7 µM	23.3 µM	0.629 µM	–
COc1cc([C@@H]2c3cc4c(cc3[C@@H](O[C@@H]3O[C@@H]5CO[C@@H](C)O[C@H]5[C@H](O)[C@H]3O)[C@H]3COC(=O)[C@H]23)OCO4)cc(OC)c1O [ETOPOSIDE]	7.06 µM	2.91 µM	3.2 µM	1.15 µM	inhibition [15]: Active
COc1cc([C@@H]2c3cc4c(cc3[C@@H](n3cc(COC(=O)N5CCN(c6ccc([N+](=O)[O-])cc6)CC5)nn3)[C@H]3COC(=O)[C@H]23)OCO4)cc(OC)c1OC	31.3 µM	6.48 µM	56.6 µM	0.625 µM	–

From ChEMBL document CHEMBL2390892, “Synthesis and cytotoxic activity on human cancer cells of carbamate derivatives of 4β-(1,2,3-triazol-1-yl)podophyllotoxin” (Eur J Med Chem, 2013)
